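Grown in 96-well plates, cells were treated for 48 hours with each compound at five concentrations. Insufficient inhibition: endpoint recorded as highest concentration tested. GI50: concentration for 50% inhibition of growth. The concentration for full growth arrest is given as TGI.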
Legend:
Experiment in all cases: NCI-60 cell line screen, 48 h
MOLT-4 leukemia = system: MOLT-4 leukemia
EKVX NSCLC = system: EKVX NSCLC
NCI-H522 lung = system: NCI-H522 lung
K-562 leukemia = system: K-562 leukemia
OVCAR-5 ovarian = system: OVCAR-5 ovarian
HT29 colon = system: HT29 colon
IGROV1 ovarian = system: IGROV1 ovarian
SK-MEL-5 melanoma = system: SK-MEL-5 melanoma
MDA-MB-435 = system: MDA-MB-435
MDA-MB-231 breast = system: MDA-MB-231 breast

| SMILES | GI50 (MOLT-4 leukemia) [µM] | TGI (MOLT-4 leukemia) [µM] | GI50 (EKVX NSCLC) [µM] | TGI (EKVX NSCLC) [µM] | GI50 (NCI-H522 lung) [µM] | TGI (NCI-H522 lung) [µM] | GI50 (K-562 leukemia) [µM] | TGI (K-562 leukemia) [µM] | GI50 (OVCAR-5 ovarian) [µM] | TGI (OVCAR-5 ovarian) [µM] | GI50 (HT29 colon) [µM] | TGI (HT29 colon) [µM] | GI50 (IGROV1 ovarian) [µM] | TGI (IGROV1 ovarian) [µM] | GI50 (SK-MEL-5 melanoma) [µM] | TGI (SK-MEL-5 melanoma) [µM] | GI50 (MDA-MB-435) [µM] | TGI (MDA-MB-435) [µM] | GI50 (MDA-MB-231 breast) [µM] | TGI (MDA-MB-231 breast) [µM] |
| --- | --- | --- | --- | --- | --- | --- | --- | --- | --- | --- | --- | --- | --- | --- | --- | --- | --- | --- | --- | --- |
| CC(=O)[CH-]C(=O)c1ccccc1.CC(=O)[CH-]C(=O)c1ccccc1.CCOCC[O-].CCOCC[O-].[Ti+4] | 10.4 | 56.5 | 38.4 | 96.4 | 17 | 36.5 | 23 | 55.8 | 26.8 | 60.7 | 20.1 | 46.2 | 31.9 | > 100 | 22.5 | 53.3 | – | – | – | – |
| O=C(Nc1cccc(O)c1)C(=O)C(C(=O)c1ccc(Cl)c(Cl)c1)C1OC(=O)c2ccccc21 (stereo not drawn) | – | 29.2 | – | 46.6 | – | 21.8 | – | 48.9 | – | 65.2 | – | 68.4 | – | 56.5 | – | 37.6 | – | – | – | – |
| N#CCN/C=C\C(=O)c1ccc(Cl)cc1 | 21.3 | > 100 | – | – | > 100 | > 100 | 31.1 | > 100 | 37.6 | 97.3 | – | – | 31 | > 100 | 17.6 | 38.8 | 30.3 | > 100 | 31.8 | > 100 |
| O=C1OC(O)C(Oc2c(Cl)cccc2Cl)=C1Cl (stereo not drawn) | – | 85.7 | – | 73.2 | – | 27.3 | – | 48 | – | 46 | – | 34.3 | – | 46.2 | – | 27.5 | – | – | – | – |
| CCN(CC)CCCC(C)N=C(C1=C(C(=NC(C)CCCN(CC)CC)c2cccc(OC)c2)C(=O)NC1=O)c1cccc(OC)c1 (stereo not drawn) | 1.33 | 4.24 | – | – | 0.989 | 2.03 | 1.34 | 4.2 | – | – | 0.631 | 1.79 | 3.67 | 20.6 | 0.888 | 1.66 | 0.871 | 1.68 | 1.17 | 3.78 |
| CCOC(=O)C(C)(C)Oc1ccc(/C=C/C(=O)c2ccc(Cl)cc2)cc1 | – | 76.8 | – | > 100 | – | – | – | 82.2 | – | – | – | 29.3 | – | 35.1 | – | 28.3 | – | – | – | – |
| CC/C(CC(=O)CCC(=O)Nc1ccccc1[N+](=O)[O-])=N/NC(=O)C[n+]1ccccc1 | – | > 100 | – | > 100 | – | > 100 | – | > 100 | – | > 100 | – | > 100 | – | > 100 | – | > 100 | – | – | – | – |
| COc1ccc2c(c1)CC[C@H](O)/C2=C/c1cc(OC)c(OC)c(OC)c1 | 0.351 | > 100 | 1.21 | > 100 | 0.0824 | 6.16 | 0.0492 | > 100 | 0.906 | > 100 | 0.107 | > 100 | 1.38 | > 100 | 0.0608 | 2.89 | – | – | 0.604 | > 100 |
| FC(F)(F)C1(Br)C(c2ccccc2)=C1c1ccccc1 | – | > 100 | – | > 100 | – | – | – | 28.2 | – | 52 | – | 34.8 | – | 74.3 | – | 28.8 | – | – | – | – |
| C=C[C@@]1(O)CCCC2=C(C(=O)OCC)CC[C@]21C | – | > 100 | – | > 100 | – | > 100 | – | > 100 | – | > 100 | – | > 100 | – | > 100 | – | > 100 | – | – | – | – |
| O=C1C(Cl)C(c2ccccc2O)N1n1cnc2ccccc2c1=O (stereo not drawn) | – | > 100 | – | 88.5 | – | 93.8 | – | > 100 | – | > 100 | – | > 100 | – | > 100 | – | > 100 | – | – | – | – |
| CC1=NN(C(=O)c2ccc([N+](=O)[O-])cc2)C(=O)C1N=Nc1ccccc1C(=O)O (stereo not drawn) | – | > 100 | – | > 100 | – | > 100 | – | > 100 | – | > 100 | – | > 100 | – | > 100 | – | > 100 | – | – | – | – |
| O=[N+]([O-])C1Cc2ccccc2OC1c1ccccc1 (stereo not drawn) | – | 70.7 | – | > 100 | – | > 100 | – | > 100 | – | > 100 | – | > 100 | – | > 100 | – | > 100 | – | – | – | – |
| CN1C(=O)C(=O)c2cc3c(c4c2c1cc1ccccc14)OCO3 | – | 93.4 | – | > 100 | – | > 100 | – | > 100 | – | > 100 | – | > 100 | – | > 100 | – | > 100 | – | – | – | – |
| O=S1Nc2c(Cl)cc(Cl)c3c(Cl)cc(Cl)c(c23)N1 | – | > 100 | – | > 100 | – | 89.8 | – | > 100 | – | > 100 | – | > 100 | – | > 100 | – | > 100 | – | – | – | – |
| CN(C)c1nc(=Nc2cccc(Cl)c2)ss1 | – | 22.4 | – | 56.5 | – | 15 | – | 41.8 | – | 74.6 | – | 36.3 | – | 51 | – | > 100 | – | – | – | – |
| CCOC(=N)/C(=C1\OC(N)=C(c2ccc(Cl)cc2)C1=O)c1ccc(Cl)cc1 | – | 52.1 | – | 32.7 | – | 29.4 | – | 53.6 | – | 35 | – | 52.6 | – | > 100 | – | – | – | – | – | – |
| Cc1cc(N2CCSCC2)nc(NC2CCCC(Nc3ccnc4cc(Cl)ccc34)C2)n1 (stereo not drawn) | 1.55 | 5.34 | 2.7 | 10.8 | – | – | 1.14 | 3.41 | 2.88 | 14.1 | 1.61 | 3.98 | 1.97 | 5.39 | 1.72 | 3.11 | 1.68 | 3.09 | 1.95 | 3.89 |
| CCOc1cccc2ccc[n+](CC)c12 | – | > 100 | – | > 100 | – | > 100 | – | > 100 | – | > 100 | – | > 100 | – | > 100 | – | > 100 | – | – | – | – |
| O=c1[nH]c2cc(Cl)ccc2nc1/C(=N\O)C(O)c1ccc([N+](=O)[O-])cc1 (stereo not drawn) | – | > 100 | – | > 100 | – | – | – | > 100 | – | – | – | > 100 | – | > 100 | – | > 100 | – | – | – | – |
